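96-well plates; 48 h exposure; 5 concentrations. Endpoints by linear interpolation between flanking doses. Not reached: highest tested concentration assigned. At the GI50, growth is halved. At the TGI there is no net growth.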
Columns and labels:
Assay in all cases: NCI tumour cell line growth inhibition, 48 h
[1] = test system: DMS 273 small cell lung
[2] = test system: M19-MEL melanoma
[3] = test system: XF 498 CNS
[4] = test system: RXF-631 renal
[5] = test system: P388 leukemia
[6] = test system: P388/ADR leukemia
[7] = test system: SN12K1 renal

SMILES | TGI [1] [µM] | TGI [2] [µM] | TGI [3] [µM] | TGI [4] [µM] | TGI [5] [µM] | GI50 [1] [µM] | TGI [6] [µM] | GI50 [3] [µM] | TGI [7] [µM]
CCCCC#C[I+]c1ccccc1 | 40.9 | 30.1 | 28.6 | 35.6 | – | – | – | – | –
C=C(C)C(=O)OC1C/C(CO)=C\C(O)C/C(C)=C/C2OC(=O)C(=C)C21 (stereo not given) | > 100 | 92.7 | 29.3 | 36.7 | – | – | – | – | –
O=C(CCN1CCCCC1)C(=Cc1ccccc1)C(=O)CCN1CCCCC1 | > 100 | > 100 | > 100 | – | > 31.6 | 7.61 | > 72.4 | 5.35 | > 100
Cc1c(O)c(O)cc[n+]1C1OC(CO)C(O)C1O (stereo not given) | > 100 | > 100 | – | – | – | – | – | – | –
CC(C)CCS(=O)(=O)OCCCCOS(=O)(=O)CCC(C)C | > 100 | > 100 | – | – | – | – | – | – | –
